Reference: US7604806B2, “Use of a lyophilisate of dedifferentiated plant cells for skin depigmentation and/or lightening” (Biotechmarine, priority 2003, dated 2009)

Test system: reconstructed epidermes SKINETHIC® integrating melanocytes (type IV)
Assay: Assay of the melanin on reconstructed epidermes integrating melanocytes
Assay type: cell-based, human
Method: The cells are grown for 10 days at the air/liquid interface, the growth medium is being changed daily. The thus formed type IV epidermis (=negroid) were used from the 10th day of culture. […] Marine cells obtained in Examples 1 and 2. The assessment of the synthesis of intracellular melanin (qualitative study) was carried out by spectrometry at 475 nm after that the cells were suspended, then dissolved in NaOH (1N) and dimethyl sulfoxide for 30 minutes.

In the case of O=c1cc(CO)occ1O [Positive control, kojic acid], the “Melanin, % vs negative control” value (change of the rate of melanin compared to negative control) is reported as −44% and the “Melanin, Absorbance (475 nm)” value (intracellular melanin, type IV epidermes, duplicate) is reported as 0.09 ± 0.01.
